This note sets out measurements from patent US11034650B2, “Compounds useful for treating a Mannheimia haemolytica or Histophilus somni infection” (Intervet Inc., priority 2016, dated 2021).

The structures appear in SMILES notation. Values after ≈ are worked out from the molar mass of the structure shown.

The subject of one assay is Pasteurella multocida PM 10775 (080130003051, BRD field isolate). The assay can be described thus: MIC, broth-microdilution (CLSI VET01-A4), strain PM 10775. The following applies: Pasteurella multocida strain PM 10775, broth-microdilution; unit assumed. Type of assay: cell-based. The procedure, abridged:
(§1)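 Serial twofold dilutions; unaided-eye turbidity scoring; lowest clear well = MIC.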
(In general: In broth dilution the organism is exposed to a series of concentrations in liquid medium.)
In turn, `C=CCNCc1ccc(C#Cc2ccc(C(=O)N[C@H](C(=O)NO)C(C)(C)SC)cc2)cn1` [Compound 336] yielded an MIC PM 10775 not above 0.1 µg/mL.
Take `CC(C)(O)[C@H](NC(=O)c1ccc(C#Cc2ccc(CNCc3nccs3)s2)cc1)C(=O)NO` [Compound 359]: the MIC PM 10775 amounted to 0.2 µg/mL (≈ 0.413 µM).
As for `CSC(C)(C)[C@H](NC(=O)c1ccc(C#Cc2ccc(CNCc3ccccc3)cc2)cc1)C(=O)NO` [Compound 239], the MIC PM 10775 was not above 0.1 µg/mL.
Compound `CSC(C)(C)[C@H](NC(=O)c1ccc(C#Cc2ccc(CNCc3ccccn3)cc2)cc1)C(=O)NO` [Compound 249] yielded an MIC PM 10775 not above 0.1 µg/mL.

The test system of another assay is Mannheimia haemolytica MH 13093 (XB0472-6014.1, BRD field isolate). The assay can be described thus: MIC, broth-microdilution (CLSI VET01-A4), strain MH 13093. The following applies: Mannheimia haemolytica strain MH 13093, broth-microdilution; unit assumed. Type of assay: cell-based. The procedure, abridged:
as §1
The compound `C=CCNCc1ccc(C#Cc2ccc(C(=O)N[C@H](C(=O)NO)C(C)(C)SC)cc2)cn1` [Compound 336] returned an MIC MH 13093 of 1.6 µg/mL (≈ 3.54 µM).
Consider `CC(C)(O)[C@H](NC(=O)c1ccc(C#Cc2ccc(CNCc3nccs3)s2)cc1)C(=O)NO` [Compound 359], for which the MIC MH 13093 stood at 0.4 µg/mL (≈ 0.825 µM).
`CSC(C)(C)[C@H](NC(=O)c1ccc(C#Cc2ccc(CNCc3ccccc3)cc2)cc1)C(=O)NO` [Compound 239] yielded an MIC MH 13093 of 0.8 µg/mL (≈ 1.59 µM).
In turn, `CSC(C)(C)[C@H](NC(=O)c1ccc(C#Cc2ccc(CNCc3ccccn3)cc2)cc1)C(=O)NO` [Compound 249] had an MIC MH 13093 of 0.8 µg/mL (≈ 1.59 µM).

In the next assay the test system is Mannheimia haemolytica MH 6357 (M7/2, reference strain, cattle infection strain). The assay can be described thus: MIC, broth-microdilution (CLSI VET01-A4), strain MH 6357. The assay is classed as cell-based. To be noted: Mannheimia haemolytica strain MH 6357, broth-microdilution; unit assumed. The procedure, abridged:
as §1
Take `C=CCNCc1ccc(C#Cc2ccc(C(=O)N[C@H](C(=O)NO)C(C)(C)SC)cc2)cn1` [Compound 336]: the MIC MH 6357 was 0.8 µg/mL (≈ 1.77 µM).
In turn, `CC(C)(O)[C@H](NC(=O)c1ccc(C#Cc2ccc(CNCc3nccs3)s2)cc1)C(=O)NO` [Compound 359] displayed an MIC MH 6357 of 0.4 µg/mL (≈ 0.825 µM).
Turning to `CSC(C)(C)[C@H](NC(=O)c1ccc(C#Cc2ccc(CNCc3ccccc3)cc2)cc1)C(=O)NO` [Compound 239], the MIC MH 6357 amounted to 0.8 µg/mL (≈ 1.59 µM).
The compound `CSC(C)(C)[C@H](NC(=O)c1ccc(C#Cc2ccc(CNCc3ccccn3)cc2)cc1)C(=O)NO` [Compound 249] had an MIC MH 6357 of 0.8 µg/mL (≈ 1.59 µM).

In another assay the test system is Mannheimia haemolytica MH 10720 (154, BRD field isolate). Kind of assay: MIC, broth-microdilution (CLSI VET01-A4), strain MH 10720. Type of assay: cell-based. The following applies: Mannheimia haemolytica strain MH 10720, broth-microdilution; unit assumed. The procedure, abridged:
as §1
Compound `C=CCNCc1ccc(C#Cc2ccc(C(=O)N[C@H](C(=O)NO)C(C)(C)SC)cc2)cn1` [Compound 336] yielded an MIC MH 10720 of 0.2 µg/mL (≈ 0.442 µM).
In turn, `CC(C)(O)[C@H](NC(=O)c1ccc(C#Cc2ccc(CNCc3nccs3)s2)cc1)C(=O)NO` [Compound 359] came in with an MIC MH 10720 not above 0.1 µg/mL.
On the same count and under the same terms, then `CSC(C)(C)[C@H](NC(=O)c1ccc(C#Cc2ccc(CNCc3ccccc3)cc2)cc1)C(=O)NO` [Compound 239], with 0.2 µg/mL (≈ 0.399 µM).
Turning to `CSC(C)(C)[C@H](NC(=O)c1ccc(C#Cc2ccc(CNCc3ccccn3)cc2)cc1)C(=O)NO` [Compound 249], the MIC MH 10720 stood at 0.2 µg/mL (≈ 0.398 µM).

Another assay has as its system Pasteurella multocida PM 6267 (P 2225 (L386), reference strain, mouse infection strain). Kind of assay: MIC, broth-microdilution (CLSI VET01-A4), strain PM 6267. The assay is classed as cell-based. The following applies: Pasteurella multocida strain PM 6267, broth-microdilution; unit assumed. Put shortly: as §1
In turn, `C=CCNCc1ccc(C#Cc2ccc(C(=O)N[C@H](C(=O)NO)C(C)(C)SC)cc2)cn1` [Compound 336] gave an MIC PM 6267 of 0.8 µg/mL (≈ 1.77 µM).
For `CC(C)(O)[C@H](NC(=O)c1ccc(C#Cc2ccc(CNCc3nccs3)s2)cc1)C(=O)NO` [Compound 359], the MIC PM 6267 was not above 0.1 µg/mL.
Turning to `CSC(C)(C)[C@H](NC(=O)c1ccc(C#Cc2ccc(CNCc3ccccc3)cc2)cc1)C(=O)NO` [Compound 239], the MIC PM 6267 was 0.2 µg/mL (≈ 0.399 µM).
`CSC(C)(C)[C@H](NC(=O)c1ccc(C#Cc2ccc(CNCc3ccccn3)cc2)cc1)C(=O)NO` [Compound 249] returned an MIC PM 6267 of 0.2 µg/mL (≈ 0.398 µM).

The subject of the next assay is Mannheimia haemolytica MH 6374 (ATCC 33396, reference strain). Kind of assay: MIC, broth-microdilution (CLSI VET01-A4), strain MH 6374. Type of assay: cell-based. The following applies: Mannheimia haemolytica strain MH 6374, broth-microdilution; unit assumed. Put shortly: as §1
The compound `C=CCNCc1ccc(C#Cc2ccc(C(=O)N[C@H](C(=O)NO)C(C)(C)SC)cc2)cn1` [Compound 336] returned an MIC MH 6374 of 0.8 µg/mL (≈ 1.77 µM).
The compound `CC(C)(O)[C@H](NC(=O)c1ccc(C#Cc2ccc(CNCc3nccs3)s2)cc1)C(=O)NO` [Compound 359] returned an MIC MH 6374 of 0.2 µg/mL (≈ 0.413 µM).
On the same count and under the same terms, then `CSC(C)(C)[C@H](NC(=O)c1ccc(C#Cc2ccc(CNCc3ccccc3)cc2)cc1)C(=O)NO` [Compound 239], with 1.6 µg/mL (≈ 3.19 µM).
`CSC(C)(C)[C@H](NC(=O)c1ccc(C#Cc2ccc(CNCc3ccccn3)cc2)cc1)C(=O)NO` [Compound 249] came in with an MIC MH 6374 of 1.6 µg/mL (≈ 3.18 µM).

The next assay concerns Pasteurella multocida PM 12080 (IV102277-0093, BRD field isolate). Kind of assay: MIC, broth-microdilution (CLSI VET01-A4), strain PM 12080. Type of assay: cell-based. The following applies: Pasteurella multocida strain PM 12080, broth-microdilution; unit assumed. The procedure, abridged:
as §1
Consider `C=CCNCc1ccc(C#Cc2ccc(C(=O)N[C@H](C(=O)NO)C(C)(C)SC)cc2)cn1` [Compound 336], for which the MIC PM 12080 was found to be 0.8 µg/mL (≈ 1.77 µM).
Take `CC(C)(O)[C@H](NC(=O)c1ccc(C#Cc2ccc(CNCc3nccs3)s2)cc1)C(=O)NO` [Compound 359]: the MIC PM 12080 is not above 0.1 µg/mL.
On the same count and under the same terms, then `CSC(C)(C)[C@H](NC(=O)c1ccc(C#Cc2ccc(CNCc3ccccc3)cc2)cc1)C(=O)NO` [Compound 239], with 0.4 µg/mL (≈ 0.797 µM); and `CSC(C)(C)[C@H](NC(=O)c1ccc(C#Cc2ccc(CNCc3ccccn3)cc2)cc1)C(=O)NO` [Compound 249], with 0.4 µg/mL (≈ 0.796 µM).

In the next assay the test system is Pasteurella multocida PM 6391 (ATCC 43137, reference strain). The assay can be described thus: MIC, broth-microdilution (CLSI VET01-A4), strain PM 6391. Type of assay: cell-based. The following applies: Pasteurella multocida strain PM 6391, broth-microdilution; unit assumed. The procedure, abridged: as §1
On to `C=CCNCc1ccc(C#Cc2ccc(C(=O)N[C@H](C(=O)NO)C(C)(C)SC)cc2)cn1` [Compound 336], for which the MIC PM 6391 was 1.6 µg/mL (≈ 3.54 µM).
Regarding `CC(C)(O)[C@H](NC(=O)c1ccc(C#Cc2ccc(CNCc3nccs3)s2)cc1)C(=O)NO` [Compound 359], the MIC PM 6391 was not above 0.1 µg/mL.
The compound `CSC(C)(C)[C@H](NC(=O)c1ccc(C#Cc2ccc(CNCc3ccccc3)cc2)cc1)C(=O)NO` [Compound 239] returned an MIC PM 6391 of 0.4 µg/mL (≈ 0.797 µM).
Consider `CSC(C)(C)[C@H](NC(=O)c1ccc(C#Cc2ccc(CNCc3ccccn3)cc2)cc1)C(=O)NO` [Compound 249], for which the MIC PM 6391 turned out to be 0.8 µg/mL (≈ 1.59 µM).

Another assay relates to Mannheimia haemolytica MH 12587 (1071, BRD field isolate, macrolide-resistance: erm+, E+). The assay can be described thus: MIC, broth-microdilution (CLSI VET01-A4), strain MH 12587. The assay is classed as cell-based. To be noted: Mannheimia haemolytica strain MH 12587, broth-microdilution; unit assumed. Put shortly:
as §1
The compound `C=CCNCc1ccc(C#Cc2ccc(C(=O)N[C@H](C(=O)NO)C(C)(C)SC)cc2)cn1` [Compound 336] had an MIC MH 12587 of 3.1 µg/mL (≈ 6.85 µM).
`CC(C)(O)[C@H](NC(=O)c1ccc(C#Cc2ccc(CNCc3nccs3)s2)cc1)C(=O)NO` [Compound 359] came in with an MIC MH 12587 of 0.4 µg/mL (≈ 0.825 µM).
The same measure, in the same setting: then `CSC(C)(C)[C@H](NC(=O)c1ccc(C#Cc2ccc(CNCc3ccccc3)cc2)cc1)C(=O)NO` [Compound 239], with 1.6 µg/mL (≈ 3.19 µM); and `CSC(C)(C)[C@H](NC(=O)c1ccc(C#Cc2ccc(CNCc3ccccn3)cc2)cc1)C(=O)NO` [Compound 249], with 1.6 µg/mL (≈ 3.18 µM).

Another assay deals with Mannheimia haemolytica MH 13065 (XB0446-6003.9, BRD field isolate). Kind of assay: MIC, broth-microdilution (CLSI VET01-A4), strain MH 13065. Type of assay: cell-based. The following applies: Mannheimia haemolytica strain MH 13065, broth-microdilution; unit assumed. The procedure, abridged: as §1
Turning to `C=CCNCc1ccc(C#Cc2ccc(C(=O)N[C@H](C(=O)NO)C(C)(C)SC)cc2)cn1` [Compound 336], the MIC MH 13065 turned out to be 1.6 µg/mL (≈ 3.54 µM).
`CC(C)(O)[C@H](NC(=O)c1ccc(C#Cc2ccc(CNCc3nccs3)s2)cc1)C(=O)NO` [Compound 359] returned an MIC MH 13065 of 0.2 µg/mL (≈ 0.413 µM).
In turn, `CSC(C)(C)[C@H](NC(=O)c1ccc(C#Cc2ccc(CNCc3ccccc3)cc2)cc1)C(=O)NO` [Compound 239] yielded an MIC MH 13065 of 0.8 µg/mL (≈ 1.59 µM).
As for `CSC(C)(C)[C@H](NC(=O)c1ccc(C#Cc2ccc(CNCc3ccccn3)cc2)cc1)C(=O)NO` [Compound 249], the MIC MH 13065 was determined as 0.8 µg/mL (≈ 1.59 µM).
